Columns and labels:
[1] = tested on: ICAM-1 expression in A549 cells; assay: ICAM assay (IL-1 induced ICAM-1/CD54 expression in A549 cells); assay type: cell-based, human; conditions: Homo sapiens, A549, ICAM assay
In short: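 Luminescent immunostaining (anti-CD54, then anti-mouse IgG, 1 h) quantifies ICAM-1 on A549 cells induced 4 h at 37° C by IL-1 (4 μl of 25 ng/ml added). Compound is added 1 h before the cytokine to cells plated overnight at 10,000 per well.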

APC11/APC2 = APC11/APC2 (Homo sapiens, UniProt Q9NYG5+Q9UJX6); assay: APC-11/APC-2 ligase assay (APC auto ubiquitination); assay type: biochemical; conditions: APC assay
Sequence of APC11/APC2 (Q9NYG5 whole entry): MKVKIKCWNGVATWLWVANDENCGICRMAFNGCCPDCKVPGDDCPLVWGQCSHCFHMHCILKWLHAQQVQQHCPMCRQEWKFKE
Sequence of APC11/APC2 (Q9UJX6 whole entry): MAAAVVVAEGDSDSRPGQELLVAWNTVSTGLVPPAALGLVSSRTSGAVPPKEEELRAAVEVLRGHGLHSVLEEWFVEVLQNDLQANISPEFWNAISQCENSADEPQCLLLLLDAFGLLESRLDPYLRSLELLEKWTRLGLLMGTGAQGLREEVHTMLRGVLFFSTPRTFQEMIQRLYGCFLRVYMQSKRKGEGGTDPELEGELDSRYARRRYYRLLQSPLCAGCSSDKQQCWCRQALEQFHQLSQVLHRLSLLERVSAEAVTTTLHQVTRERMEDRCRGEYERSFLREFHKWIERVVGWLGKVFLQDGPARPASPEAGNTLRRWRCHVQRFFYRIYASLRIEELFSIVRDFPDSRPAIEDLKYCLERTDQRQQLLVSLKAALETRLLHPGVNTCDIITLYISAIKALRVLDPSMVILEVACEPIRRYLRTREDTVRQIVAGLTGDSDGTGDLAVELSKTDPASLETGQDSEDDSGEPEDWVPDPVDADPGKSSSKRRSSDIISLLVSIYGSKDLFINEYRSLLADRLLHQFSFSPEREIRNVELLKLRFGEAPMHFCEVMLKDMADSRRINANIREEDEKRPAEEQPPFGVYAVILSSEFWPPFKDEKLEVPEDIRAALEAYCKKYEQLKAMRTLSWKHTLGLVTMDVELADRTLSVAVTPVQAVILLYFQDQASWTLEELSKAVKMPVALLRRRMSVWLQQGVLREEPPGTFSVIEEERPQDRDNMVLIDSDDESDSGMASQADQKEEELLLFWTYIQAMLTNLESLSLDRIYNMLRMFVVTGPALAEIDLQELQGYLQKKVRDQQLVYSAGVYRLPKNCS
In short: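 His-tagged APC was captured on nickel plates with human E1 (5 ng/well), UbcH5c (20 ng/well), APC (100 ng/well) and Flag-ubiquitin (100 ng/well) in a Tris pH 7.6 reaction buffer containing 2.5 mM ATP, for 1 hour at room temperature. Read-out was anti-Flag/HRP chemiluminescence. IC50 was set against a DMSO control, typically from 6 or 8 concentrations.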

| IC50 [1] [µM] | IC50 (APC11/APC2) [µM] | SMILES |
| --- | --- | --- |
| ≥ 20 | – | O=S(=O)(Nc1cccc(F)c1)c1ccc(Cl)c2nonc12 [compound 263, 7-chloro-N-(3-fluorophenyl)-2,1,3-benzoxadiazole-4-sulfonamide] |
| ≥ 20 | – | O=S(=O)(c1ccc(Cl)c2nonc12)N1CCN(c2ncccn2)CC1 [compound 184, 4-chloro-7-[(4-pyrimidin-2-ylpiperazin-1-yl)sulfonyl]-2,1,3-benzoxadiazole] |
| ≥ 20 | – | O=S(=O)(c1c(Cl)ccc2nonc12)N1CCN(c2cnccn2)CC1 [compound 200, 5-chloro-4-[(4-pyrazin-2-ylpiperazin-1-yl)sulfonyl]-2,1,3-benzoxadiazole] |
| – | 1 to 20 | CCOC(=O)c1cc(C#N)c(C)nc1N1CCN(c2ccc([N+](=O)[O-])c3nonc23)CC1 [compound 153, ethyl 5-cyano-6-methyl-2-[4-(7-nitro-2,1,3-benzoxadiazol-4-yl)piperazin-1-yl]nicotinate] |
| ≥ 20 | – | CC(=O)N1CCN(S(=O)(=O)c2c(Cl)ccc3nonc23)CC1 [compound 201, 4-[(4-acetylpiperazin-1-yl)sulfonyl]-5-chloro-2,1,3-benzoxadiazole] |
| ≥ 20 | – | COC(=O)c1ccc(NS(=O)(=O)c2ccc(F)c3nonc23)cc1 [compound 167, methyl 4-{[(7-fluoro-2,1,3-benzoxadiazol-4-yl)sulfonyl]amino}benzoate] |
| – | 1 to 20 | COc1cccc(-c2ccc([N+](=O)[O-])c3nonc23)c1F [compound 314, 4-(2-Fluoro-3-methoxyphenyl)-7-nitro-2,1,3-benzoxadiazole] |
| – | < 1 | O=[N+]([O-])c1ccc(N2CCN(c3ncc(C(F)(F)F)cc3Cl)CC2)c2nonc12 [compound 315, 4-{4-[3-chloro-5-(trifluoromethyl)pyrindin-2-yl]piperazin-1-yl}-7-nitro-2,1,3-benzoxadiazole] |
| ≥ 20 | – | O=S(=O)(c1ccc(Cl)c2nonc12)N1CCN(c2ccccc2)CC1 [compound 186, 4-chloro-7-[(4-phenylpiperazin-1-yl)sulfonyl]-2,1,3-benzoxadiazole] |
| – | 1 to 20 | O=[N+]([O-])c1ccc(N2CCN(c3ccc(O)cc3)CC2)c2nonc12 [compound 146, 4-[4-(7-nitro-2,1,3-benzoxadiazol-4-yl)piperazin-1-yl]phenol] |
| – | 1 to 20 | O=S(=O)(Nc1cccc2nonc12)c1ccc(Oc2ncc(C(F)(F)F)cc2Cl)cc1 [compound 78, N-2,1,3-benzoxadiazol-4-yl-4-{[3-chloro-5-(trifluoromethyl)pyridin-2-yl]oxy}benzenesulfonamide] |
| ≥ 20 | – | N#Cc1ccccc1N1CCN(S(=O)(=O)c2c(Cl)ccc3nonc23)CC1 [compound 180, 2-{4-[(5-chloro-2,1,3-benzoxadiazol-4-yl)sulfonyl]piperazin-1-yl}benzonitrile] |
| ≥ 20 | – | O=S(=O)(Nc1ccc2cn[nH]c2c1)c1ccc(Cl)c2nonc12 [compound 220, 7-chloro-N-1 H-indazol-6-yl-2,1,3-benzoxadiazole-4-sulfonamide] |
| ≥ 20 | – | O=S(=O)(Nc1ccc(F)c(F)c1)c1ccc(Cl)c2nonc12 [compound 262, 7-chloro-N-(3,4-difluorophenyl)-2,1,3-benzoxadiazole-4-sulfonamide] |
| ≥ 20 | – | O=[N+]([O-])c1ccc(SCCO)c2nonc12 [compound 150, 2-[(7-nitro-2,1,3-benzoxadiazol-4-yl)thio]ethanol] |
| – | 1 to 20 | O=S(=O)(c1ccc(Sc2cccc3cccnc23)c2nonc12)N1CCN(c2ncc(C(F)(F)F)cc2Cl)CC1 [compound 177, 8-{[7-({4-[3-chloro-5-(trifluoromethyl)pyridin-2-yl]piperazin-1-yl}sulfonyl)-2,1,3-benzoxadiazol-4-yl]thio}quinoline] |
| ≥ 20 | – | O=S(=O)(c1ccc(Sc2ccc(O)cc2)c2nonc12)N1CCC(Oc2ncccn2)CC1 [compound 226, 4-[(7-{[4-(pyrimidin-2-yloxy)piperidin-1-yl]sulfonyl}-2,1,3-benzaxadiazol-4-yl)thio]phenol] |
| – | 1 to 20 | O=S(=O)(Oc1ccc(N2CCN(S(=O)(=O)c3ccc(Cl)c4nonc34)CC2)cc1)c1ccc(Cl)c2nonc12 [compound 171, 4-{4-[(7-chloro-2,1,3-benzoxadiazol-4-yl)sulfonyl]piperazin-1-yl}phenyl 7-chloro-2,1,3-benzoxadiazole-4-sulfonate] |
| – | 1 to 20 | O=S(=O)(c1c(N2CCN(c3ccc(Cl)c(C(F)(F)F)c3)CC2)ccc2nonc12)N1CCN(c2ccc(Cl)c(C(F)(F)F)c2)CC1 [compound 181, 5-{4-[4-chloro-3-(trifluoromethyl)phenyl]piperazin-1-yl}-4-({4-[4-chloro-3-(trifluoromethyl)phenyl]piperazin-1-yl}sulfonyl)-2,1,3-benzoxadiazole] |

| IC50 [1] [µM] | IC50 (APC11/APC2) [µM] | SMILES |
| --- | --- | --- |
| – | 1 to 20 | O=[N+]([O-])c1ccc(Oc2c(Cl)cc(S(=O)(=O)Nc3cccc4nsnc34)cc2Cl)c(Cl)c1 [compound 73, N-2,1,3-benzothiadiazol-4-yl-3,5-dichloro-4-(2-chloro-4-nitrophenoxy)benzenesulfonamide] |
| ≥ 20 | – | N#Cc1ccc(N2CCN(S(=O)(=O)c3c(Cl)ccc4nonc34)CC2)nc1 [compound 209, 6-{4-[(5-chloro-2,1,3-benzoxadiazol-4-yl)sulfonyl]piperazin-1-yl}nicotinonitrile] |
| – | 1 to 20 | O=[N+]([O-])c1ccc(Oc2ccc(S(=O)(=O)Nc3cccc4nonc34)cc2Cl)c(C(F)(F)F)c1 [compound 114, N-2,1,3-benzoxadiazol-4-yl-3-chloro-4-[4-nitro-2-(trifluoromethyl)phenoxy]benzenesulfonamide] |
| – | 1 to 20 | Cc1ccc(N2CCN(c3ccc([N+](=O)[O-])c4nonc34)CC2)cc1C [compound 140, 4-[4-(3,4-dimethylphenyl)piperazin-1-yl]-7-nitro-2,1,3-benzoxadiazole] |
| – | 1 to 20 | N#Cc1ccc(N2CCN(c3ccc([N+](=O)[O-])c4nonc34)CC2)nc1 [compound 121, 6-[4-(7-nitro-2,1,3-benzoxadiazol-4-yl)piperazin-1-yl]nicotinonitrile] |
| ≥ 20 | – | CC(=O)N1CCN(S(=O)(=O)c2c(Sc3cccc4cccnc34)ccc3nonc23)CC1 [compound 214, 8-({4-[(4-acetylpiperazin-1-yl)sulfonyl]-2,1,3-benzoxadiazol-5-yl}thio)quinoline] |
| – | 1 to 20 | Cc1cc(C)cc(-c2ccc([N+](=O)[O-])c3nonc23)c1 [compound 286, 4-(3,5-Dimethylphenyl)-7-nitro-2,1,3-benzoxadiazole] |
| – | 1 to 20 | Cc1ccc(Cl)cc1N1CCN(c2ccc([N+](=O)[O-])c3nonc23)CC1 [compound 145, 4-[4-(5-chloro-2-methylphenyl)piperazin-1-yl]-7-nitro-2,1,3-benzoxadiazole] |
| – | 1 to 20 | O=[N+]([O-])c1ccc(Sc2cccc3cccnc23)c2nonc12 [compound 5, 8-[(7-Nitro-2,1,3-benzoxadiazol-4-yl)thio]quinoline] |
| ≥ 20 | – | COC(=O)c1ccc(NS(=O)(=O)c2c(Cl)ccc3nonc23)cc1 [compound 178, methyl 4-{[(5-chloro-2,1,3-benzoxadiazol-4-yl)sulfonyl]amino}benzoate] |
| ≥ 20 | – | Cc1cccc(N2CCN(S(=O)(=O)c3c(Cl)ccc4nonc34)CC2)n1 [compound 202, 5-chloro-4-{[4-(6-methylpyridin-2-yl)piperazin-1-yl]sulfonyl}-2,1,3-benzoxadiazole] |
| – | 1 to 20 | O=[N+]([O-])c1ccc(N2CCN(c3ncccc3C(F)(F)F)CC2)c2nonc12 [compound 148, 4-nitro-7-{4-[3-(trifluoromethyl)pyridin-2-yl]piperazin-1-yl}-2,1,3-benzoxadiazole] |
| – | 1 to 20 | O=[N+]([O-])c1ccc(N2CCN(c3cc(C(F)(F)F)ccn3)CC2)c2nonc12 [compound 90, 4-nitro-7-{4-[4-(trifluoromethyl)pyridin-2-yl]piperazin-1-yl}-2,1,3-benzoxadiazole] |
| ≥ 20 | – | CC1CC(C)CN(S(=O)(=O)c2ccc(Cl)c3nonc23)C1 (stereo not shown) [compound 192, 4-chloro-7-[(3,5-dimethylpiperidin-1-yl)sulfonyl]-2,1,3-benzoxadiazole] |
| – | 1 to 20 | O=S(=O)(Nc1cccc2nsnc12)c1ccc(Oc2ccccc2)cc1 [compound 94, N-2,1,3-benzothiadiazol-4-yl-4-phenoxybenzenesulfonamide] |
| – | 1 to 20 | O=[N+]([O-])c1ccc(N2CCN(c3ncccn3)CC2)c2nonc12 [compound 109, 4-nitro-7-(1,3-(pyrimidin-2-yl)piperazin-1-yl)-2,1,3-benzoxadiazole] |
| ≥ 20 | – | O=c1[nH]c2ccccc2n1C1CCN(S(=O)(=O)c2ccc(Cl)c3nonc23)CC1 [compound 188, 1-{1-[(7-chloro-2,1,3-benzoxadiazol-4-yl)sulfonyl]piperidin-4-yl}-1,3-dihydro-2H-benzimidazol-2-one] |
| ≥ 20 | – | N#Cc1cccnc1N1CCN(S(=O)(=O)c2ccc(Cl)c3nonc23)CC1 [compound 170, 2-{4-[(7-chloro-2,1,3-benzoxadiazol-4-yl)sulfonyl]piperazin-1-yl}nicotinomtrile] |

| SMILES | IC50 [1] [µM] | IC50 (APC11/APC2) [µM] |
| --- | --- | --- |
| CC1CC(C)CN(c2ccc([N+](=O)[O-])c3nonc23)C1 (stereo not shown) [compound 144, 4-(3,5-dimethylpiperidin-1-yl)-7-nitro-2,1,3-benzoxadiazole] | – | 1 to 20 |
| O=[N+]([O-])c1ccc(N2CCC(O)(c3ccc(Cl)cc3)CC2)c2nonc12 [compound 159, 4-(4-chlorophenyl)-1-(7-nitro-2,1,3-benzoxadiazol-4-yl)piperidin-4-ol] | – | 1 to 20 |
| N#CC1(c2ccccc2)CCN(c2ccc([N+](=O)[O-])c3nonc23)CC1 [compound 141, 1-(7-nitro-2,1,3-benzoxadiazol-4-yl)-4-phenylpiperidine-4-carbonitrile] | – | 1 to 20 |
